Measurements published in patent publication US12534474B2, “Dihydrofuropyridine derivatives as rho-kinase inhibitors” (CHIESI FARMACEUTICI S.P.A., priority 2020, dated 2026).

Assays:
Format in all cases: biochemical
[1] = molecular target: PKA (Homo sapiens, UniProt P17612); assay: In vitro inhibitory activity assay for PKA, ADP-Glo, reported as selectivity ratio vs ROCK2; conditions: Ki for PKA divided by Ki of ROCK2 (Method B)
Method: In Vitro Inhibitory Activity Assay Description for PKA
The effectiveness of compounds of the present invention to inhibit PKA activity can be determined in a 10 μL assay containing 40 mM Tris pH7.5, 20 mM MgCl2 0.1 mg/mL BSA, 50 μM DTT and 260 μM peptide substrate (kemptide) using an ADP-Glo kit (Promega). Compounds were dissolved in DMSO such that the final concentration of DMSO was 1% in the assay. All reactions/incubations are performed at 25° C. Compound and PKA enzyme (6 μL) were mixed and incubated for 30 min. Reactions were initiated by addition of ATP (4 μL) such that the final concentration of ATP in the assay was 10 μM. After a 30 minute incubation 10 μL of ADP-Glo Reagent was added and after a further 1 hour incubation 20 μL of Kinase Detection Buffer was added and the mixture incubated for a further 45 minutes. The luminescent signal was measured on a luminometer. […] Compounds were tested in dose-response format and the inhibition of kinase activity was calculated at each concentration of compound. To determine the IC50 (concentration of compound required to inhibit 50% of the enzyme activity) data were fit to a plot of % inhibition vs Log10 compound concentration using a sigmoidal fit with a variable slope and fixing the maximum to 100% and the minimum to 0%. To determine the Ki values the Cheng-Prusoff equation was utilized (Ki=IC50/(1+[S]/Km).
In vitro inhibitory activities for PKA were reported as selectivity ratio vs. ROCK2. Selectivity ratio PKA/ROCK2 was calculated by dividing the Ki value for PKA by Ki value of ROCK2 (Method B) and reported into table 1.

[2] = molecular target: T1, ROCK1 (Homo sapiens, UniProt Q13464); assay: In vitro Rho kinase inhibitory activity assay, ADP-Glo, Method B (ATP 200 μM); conditions: read-out: Method B ROCK 1 (Ki)
T1 sequence (Q13464 whole entry): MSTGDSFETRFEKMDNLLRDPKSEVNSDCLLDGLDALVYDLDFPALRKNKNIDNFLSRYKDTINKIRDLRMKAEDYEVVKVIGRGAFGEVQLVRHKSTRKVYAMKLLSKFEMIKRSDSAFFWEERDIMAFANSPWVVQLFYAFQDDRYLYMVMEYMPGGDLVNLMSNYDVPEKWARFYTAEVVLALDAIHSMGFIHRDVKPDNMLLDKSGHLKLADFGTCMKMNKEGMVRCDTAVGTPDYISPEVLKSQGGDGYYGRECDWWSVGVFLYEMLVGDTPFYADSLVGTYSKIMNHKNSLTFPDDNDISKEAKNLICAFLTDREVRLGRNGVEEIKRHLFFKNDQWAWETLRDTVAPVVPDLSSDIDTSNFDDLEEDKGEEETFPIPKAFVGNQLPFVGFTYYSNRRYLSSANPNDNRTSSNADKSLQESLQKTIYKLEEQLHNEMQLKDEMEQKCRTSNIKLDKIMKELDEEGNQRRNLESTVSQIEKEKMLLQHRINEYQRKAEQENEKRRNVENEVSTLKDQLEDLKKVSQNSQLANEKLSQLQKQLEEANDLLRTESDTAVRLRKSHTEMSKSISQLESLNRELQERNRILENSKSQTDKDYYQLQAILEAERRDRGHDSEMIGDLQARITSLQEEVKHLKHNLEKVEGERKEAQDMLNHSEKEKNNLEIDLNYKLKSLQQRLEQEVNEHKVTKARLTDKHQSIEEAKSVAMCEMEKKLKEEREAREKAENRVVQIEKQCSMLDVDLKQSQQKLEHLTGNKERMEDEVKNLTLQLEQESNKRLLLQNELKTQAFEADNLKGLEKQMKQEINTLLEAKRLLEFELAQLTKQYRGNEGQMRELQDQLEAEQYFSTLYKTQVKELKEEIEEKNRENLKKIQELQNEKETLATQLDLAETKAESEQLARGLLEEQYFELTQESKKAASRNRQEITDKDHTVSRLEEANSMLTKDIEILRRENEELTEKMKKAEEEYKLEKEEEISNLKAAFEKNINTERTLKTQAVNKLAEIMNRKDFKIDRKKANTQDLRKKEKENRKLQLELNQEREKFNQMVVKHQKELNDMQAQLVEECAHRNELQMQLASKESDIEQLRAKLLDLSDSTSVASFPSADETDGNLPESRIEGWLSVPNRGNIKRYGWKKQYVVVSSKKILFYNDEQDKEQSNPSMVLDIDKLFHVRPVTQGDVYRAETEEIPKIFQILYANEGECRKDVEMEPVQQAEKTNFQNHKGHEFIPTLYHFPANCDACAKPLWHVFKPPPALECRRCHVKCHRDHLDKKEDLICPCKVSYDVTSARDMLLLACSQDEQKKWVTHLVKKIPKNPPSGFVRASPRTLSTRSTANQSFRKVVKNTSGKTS
Method: (§1) In Vitro Inhibitory Activity Assay Description (Method B)
(§2) The effectiveness of compounds of the present invention to inhibit Rho kinase activity can be determined in a 10 μL assay containing 40 mM Tris pH7.5, 20 mM MgCl2 0.1 mg/mL BSA, 50 μM DTT and 2.5 μM peptide substrate (Myelin Basic Protein) using an ADP-Glo kit (Promega). Compounds were dissolved in DMSO such that the final concentration of DMSO was 1% in the assay. All reactions/incubations are performed at 25° C. Compound (2 ul) and either Rho kinase 1 or 2 (4 μL) were mixed and incubated for 30 min. Reactions were initiated by addition of ATP (4 μL) such that the final concentration of ATP in the assay was 200 μM. After a 1 hour incubation 10 μL of ADP-Glo Reagent was added and after a further 45 minute incubation 20 ul of Kinase Detection Buffer was added and the mixture incubated for a further 30 minutes. The luminescent signal was measured on a luminometer. […] Compounds were tested in dose-response format and the inhibition of kinase activity was calculated at each concentration of compound. To determine the IC50 (concentration of compound required to inhibit 50% of the enzyme activity) data were fit to a plot of % inhibition vs Log 10 compound concentration using a sigmoidal fit with a variable slope and fixing the maximum to 100% and the minimum to 0%. To determine the Ki values the Cheng-Prusoff equation was utilized (Ki=IC50/(1+[S]/Km).

[3] = molecular target: T2, ROCK2 (Homo sapiens, UniProt O75116); assay: as above; conditions: read-out: Method B ROCK 2 (Ki)
T2 sequence (O75116 whole entry): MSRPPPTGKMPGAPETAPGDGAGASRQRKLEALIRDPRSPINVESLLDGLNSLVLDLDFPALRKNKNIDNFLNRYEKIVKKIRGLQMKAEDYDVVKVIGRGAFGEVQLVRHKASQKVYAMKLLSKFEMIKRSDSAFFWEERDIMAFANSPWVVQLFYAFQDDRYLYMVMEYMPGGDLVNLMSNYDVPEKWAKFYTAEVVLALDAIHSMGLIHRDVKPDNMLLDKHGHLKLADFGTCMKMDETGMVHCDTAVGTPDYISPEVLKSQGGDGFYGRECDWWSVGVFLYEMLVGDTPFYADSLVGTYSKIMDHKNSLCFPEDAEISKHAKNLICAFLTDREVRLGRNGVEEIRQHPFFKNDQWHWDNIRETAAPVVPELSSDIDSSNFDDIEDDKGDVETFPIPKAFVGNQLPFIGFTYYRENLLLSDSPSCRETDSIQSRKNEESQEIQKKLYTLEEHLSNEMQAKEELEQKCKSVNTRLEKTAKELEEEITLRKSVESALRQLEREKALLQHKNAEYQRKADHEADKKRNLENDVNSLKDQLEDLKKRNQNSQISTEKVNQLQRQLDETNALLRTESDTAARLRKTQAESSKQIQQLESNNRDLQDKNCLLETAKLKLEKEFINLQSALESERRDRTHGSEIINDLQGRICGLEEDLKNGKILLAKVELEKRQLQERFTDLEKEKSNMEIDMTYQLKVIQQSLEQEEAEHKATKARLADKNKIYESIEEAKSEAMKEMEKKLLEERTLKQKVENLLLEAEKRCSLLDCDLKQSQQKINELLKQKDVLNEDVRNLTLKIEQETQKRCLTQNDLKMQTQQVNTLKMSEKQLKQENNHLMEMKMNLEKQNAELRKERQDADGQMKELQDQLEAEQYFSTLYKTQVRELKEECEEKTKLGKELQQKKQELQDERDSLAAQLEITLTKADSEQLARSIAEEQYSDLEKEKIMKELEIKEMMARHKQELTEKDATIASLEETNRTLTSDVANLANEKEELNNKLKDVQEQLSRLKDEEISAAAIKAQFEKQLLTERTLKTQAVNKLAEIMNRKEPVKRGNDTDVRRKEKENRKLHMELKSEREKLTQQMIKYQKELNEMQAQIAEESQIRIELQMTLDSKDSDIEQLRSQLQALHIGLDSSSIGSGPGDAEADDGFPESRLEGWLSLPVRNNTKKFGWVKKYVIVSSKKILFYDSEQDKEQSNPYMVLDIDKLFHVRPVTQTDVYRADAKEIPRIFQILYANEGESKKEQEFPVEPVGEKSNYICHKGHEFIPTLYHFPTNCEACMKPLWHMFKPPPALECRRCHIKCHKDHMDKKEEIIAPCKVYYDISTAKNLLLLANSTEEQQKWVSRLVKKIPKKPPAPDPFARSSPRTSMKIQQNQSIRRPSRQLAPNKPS
Method: as §1, §2

[4] = molecular target: T1, ROCK1; assay: In vitro Rho kinase inhibitory activity assay, ADP-Glo, Method A (ATP 10 μM); conditions: read-out: Method A ROCK 1 (Ki)
Method: (§3) In Vitro Inhibitory Activity Assay Description (Method A)
as §2, with “(2 μL)” for “(2 ul)”, “was 10” for “was 200”, “20 μL” for “20 ul”, “vs Log10” for “vs Log 10”

[5] = molecular target: T2, ROCK2; assay: as above; conditions: read-out: Method A ROCK 2 (Ki)
Method: as §3
as §2, with “(2 μL)” for “(2 ul)”, “was 10” for “was 200”, “20 μL” for “20 ul”, “vs Log10” for “vs Log 10”

| Compound | Ratio (PKA/ROCK2) [1] | Ki [2] [nM] | Ki [3] [nM] | Ki [4] [nM] | Ki [5] [nM] |
| --- | --- | --- | --- | --- | --- |
| Cn1ccc(CNC(=O)c2cccc(CNc3ncc(-c4ccncc4)c4c3CCO4)c2)n1 [Example 19, N-((1-methyl-1H-pyrazol-3-yl)methyl)-3-(((7-(pyridin-4-yl)-2,3-dihydrofuro[3,2-c]pyridin-4-yl)amino)methyl)benzamide] | *** (ratio≥10) | 3 to 30 | ≤ 3 |  |  |
| CN1CCc2nc(NC(=O)c3cccc(CNc4ncc(-c5ccncc5)c5c4CCO5)c3)sc2C1 [Example 23, N-(5-methyl-4,5,6,7-tetrahydrothiazolo[5,4-c]pyridin-2-yl)-3-(((7-(pyridin-4-yl)-2,3-dihydrofuro[3,2-c]pyridin-4-yl)amino)methyl)benzamide] |  |  |  | ≤ 3 | ≤ 3 |
| O=C(N[C@H](CO)c1ccccc1)c1cccc(CNc2ncc(-c3ccncc3)c3c2CCO3)c1 [Example 24, (S)-N-(2-hydroxy-1-phenylethyl)-3-(((7-(pyridin-4-yl)-2,3-dihydrofuro[3,2-c]pyridin-4-yl)amino)methyl)benzamide] |  |  |  | ≤ 3 | ≤ 3 |
| O=C(NCCc1ccncc1)c1cccc(CNc2ncc(-c3ccncc3)c3c2CCO3)c1 [Example 25, 3-(((7-(Pyridin-4-yl)-2,3-dihydrofuro[3,2-c]pyridin-4-yl)amino)methyl)-N-(2-(pyridin-4-yl)ethyl)benzamide] |  |  |  | ≤ 3 | ≤ 3 |
| CN(C)Cc1cccc(NC(=O)c2cccc(CNc3ncc(-c4ccncc4)c4c3CCO4)c2)c1 [Example 26, N-(3-((dimethylamino)methyl)phenyl)-3-(((7-(pyridin-4-yl)-2,3-dihydrofuro[3,2-c]pyridin-4-yl)amino)methyl)benzamide] |  |  |  | ≤ 3 | ≤ 3 |
| CN(C)Cc1cccc(CNC(=O)c2cccc(CNc3ncc(-c4ccncc4)c4c3CCO4)c2)c1 [Example 27, N-(3-((dimethylamino)methyl)benzyl)-3-(((7-(pyridin-4-yl)-2,3-dihydrofuro[3,2-c]pyridin-4-yl)amino)methyl)benzamide] |  |  |  | ≤ 3 | ≤ 3 |
| O=C(NCCc1cccnc1)c1cccc(CNc2ncc(-c3ccncc3)c3c2CCO3)c1 [Example 29, N-(2-(pyridin-3-yl)ethyl)-3-(((7-(pyridin-4-yl)-2,3-dihydrofuro[3,2-c]pyridin-4-yl)amino)methyl)benzamide] |  |  |  | ≤ 3 | ≤ 3 |
| COc1cc(NC(=O)c2cccc(CNc3ncc(-c4ccncc4)c4c3CCO4)c2)ncn1 [Example 31, N-(6-Methoxypyrimidin-4-yl)-3-(((7-(pyridin-4-yl)-2,3-dihydrofuro[3,2-c]pyridin-4-yl)amino)methyl)benzamide] | *** (ratio≥10) | ≤ 3 | ≤ 3 |  |  |
| CC1CCN(CCC(=O)Nc2cccc(CNc3ncc(-c4ccncc4)c4c3CCO4)c2)CC1 [Example 32, 3-(4-Methylpiperidin-1-yl)-N-(3-(((7-(pyridin-4-yl)-2,3-dihydrofuro[3,2-c]pyridin-4-yl)amino)methyl)phenyl)propanamide] |  |  |  | 3 to 30 | 3 to 30 |
| O=C(Nc1cccc(CNc2ncc(-c3ccncc3)c3c2CCO3)c1)c1cccc(CN2CCOCC2)c1 [Example 33, 3-(morpholinomethyl)-N-(3-(((7-(pyridin-4-yl)-2,3-dihydrofuro[3,2-c]pyridin-4-yl)amino)methyl)phenyl)benzamide] |  |  |  | 3 to 30 | 3 to 30 |
| CN1CCc2nc(C(=O)Nc3cccc(CNc4ncc(-c5ccncc5)c5c4CCO5)c3)sc2C1 [Example 34, 5-methyl-N-(3-(((7-(pyridin-4-yl)-2,3-dihydrofuro[3,2-c]pyridin-4-yl)amino)methyl)phenyl)-4,5,6,7-tetrahydrothiazolo[5,4-c]pyridine-2-carboxamide] |  |  |  | ≤ 3 | ≤ 3 |
| Cn1ncc2cc(C(=O)Nc3cccc(CNc4ncc(-c5ccncc5)c5c4CCO5)c3)ccc21 [Example 37, 1-methyl-N-(3-(((7-(pyridin-4-yl)-2,3-dihydrofuro[3,2-c]pyridin-4-yl)amino)methyl)phenyl)-1H-indazole-5-carboxamide] |  |  |  | ≤ 3 | ≤ 3 |
| CN(C)CCn1cc(C(=O)Nc2cccc(CNc3ncc(-c4ccncc4)c4c3CCO4)c2)cn1 [Example 41, 1-(2-(Dimethylamino)ethyl)-N-(3-(((7-(pyridin-4-yl)-2,3-dihydrofuro[3,2-c]pyridin-4-yl)amino)methyl)phenyl)-1H-pyrazole-4-carboxamide] | *** (ratio≥10) | 3 to 30 | ≤ 3 |  |  |
| O=C(NCCC1CCN(C2COC2)CC1)c1cccc(CNc2ncc(-c3ccncc3)c3c2CCO3)c1 [Example 42, N-(2-(1-(Oxetan-3-yl)piperidin-4-yl)ethyl)-3-(((7-(pyridin-4-yl)-2,3-dihydrofuro[3,2-c]pyridin-4-yl)amino)methyl)benzamide] | *** (ratio≥10) | ≤ 3 | ≤ 3 |  |  |
| CC(=O)N1CCC(CCNC(=O)c2cccc(CNc3ncc(-c4ccncc4)c4c3CCO4)c2)CC1 [Example 44, N-(2-(1-Acetylpiperidin-4-yl)ethyl)-3-(((7-(pyridin-4-yl)-2,3-dihydrofuro[3,2-c]pyridin-4-yl)amino)methyl)benzamide] | *** (ratio≥10) | ≤ 3 | ≤ 3 |  |  |
| CNC(=O)c1cccc(CNc2ncc(-c3ccnc(N)c3F)c3c2CCO3)c1 [Example 46, 3-(((7-(2-Amino-3-fluoropyridin-4-yl)-2,3-dihydrofuro[3,2-c]pyridin-4-yl)amino)methyl)-N-methylbenzamide] | *** (ratio≥10) | 3 to 30 | 3 to 30 |  |  |
| CN(C)CCOc1ccc(NC(=O)c2cccc(CNc3ncc(-c4ccncc4)c4c3CCO4)c2)nc1 [Example 56, N-(5-(2-(dimethylamino)ethoxy)pyridin-2-yl)-3-(((7-(pyridin-4-yl)-2,3-dihydrofuro[3,2-c]pyridin-4-yl)amino)methyl)benzamide] | *** (ratio≥10) | ≤ 3 | ≤ 3 |  |  |
| CNC(=O)c1cccc(CNc2ncc(-c3cc[nH]c(=O)c3)c3c2CCO3)c1 [Example B, N-methyl-3-(((7-(2-oxo-1,2-dihydropyridin-4-yl)-2,3-dihydrofuro[3,2-c]pyridin-4-yl)amino)methyl)benzamide, reference compound] | *** (ratio≥10) | > 30 | > 30 |  |  |
| CNC(=O)c1cccc(CNc2ncc(-c3ccncc3)c3c2OCC3)c1 [Example C, N-methyl-3-(((4-(pyridin-4-yl)-2,3-dihydrofuro[2,3-c]pyridin-7-yl)amino)methyl)benzamide, reference compound] | *** (ratio≥10) | > 30 | > 30 |  |  |
